Numbers after ± are expanded uncertainties.
Tests used:
[1] = 101 kPa, Liquid; for viscosity: Capillary tube (Ostwald / Ubbelohde) method; for speed of sound: Frequency=2 MHz, Linear variable-path acoustic interferometer; for mass density: Pycnometric method
[2] = xn = mol fraction of the nth substance listed; conditions: 101 kPa, Liquid, x1 = 1; for viscosity: Capillary tube (Ostwald / Ubbelohde) method; for speed of sound: Frequency=2 MHz, Linear variable-path acoustic interferometer; for mass density: Pycnometric method

Row | SMILES | viscosity ([1]; 298.15 K) [mPa·s] | speed of sound ([1]; 298.15 K) [m/s] | mass density ([1]; 298.15 K) [kg/m3] | viscosity ([1]; 308.15 K) [mPa·s] | speed of sound ([1]; 308.15 K) [m/s] | mass density ([1]; 308.15 K) [kg/m3] | viscosity ([2]; 298.15 K) [mPa·s] | speed of sound ([2]; 298.15 K) [m/s] | mass density ([2]; 298.15 K) [kg/m3] | viscosity ([2]; 308.15 K) [mPa·s] | speed of sound ([2]; 308.15 K) [m/s] | mass density ([2]; 308.15 K) [kg/m3]
1 | Cc1ccccc1 [toluene] | 0.554 ± 0.044 | 1306 ± 3 | 862.18 ± 0.73 | 0.496 ± 0.04 | 1270 ± 3 | 852.79 ± 0.74 |  |  |  |  |  | 
2 | Cc1ccccc1 [toluene] + CCCCC(C)O |  |  |  |  |  |  | 0.554 ± 0.044 | 1306 ± 3 | 862.18 ± 0.73 | 0.496 ± 0.04 | 1270 ± 3 | 852.79 ± 0.74
3 | CCCCCC(C)O (configuration not stated) [2-heptanol] | 5.088 ± 0.41 | 1314 ± 3 | 813.74 ± 0.69 | 3.683 ± 0.3 | 1274 ± 3 | 804.88 ± 0.7 |  |  |  |  |  | 
4 | CCCCCCC(C)O (configuration not stated) [2-octanol] | 6.429 ± 0.52 | 1328 ± 3 | 817.08 ± 0.58 | 4.365 ± 0.35 | 1292 ± 3 | 809.89 ± 0.6 |  |  |  |  |  | 
5 | Cc1ccccc1 [toluene] + CCCCCCC(C)O |  |  |  |  |  |  | 0.554 ± 0.044 | 1306 ± 3 | 862.18 ± 0.73 | 0.496 ± 0.04 | 1270 ± 3 | 852.79 ± 0.74
6 | CCCCC(C)O (configuration not stated) [2-hexanol] | 4.105 ± 0.33 | 1290 ± 3 | 810.84 ± 0.7 | 2.92 ± 0.23 | 1255 ± 3 | 801.75 ± 0.71 |  |  |  |  |  | 
7 | Cc1ccccc1 [toluene] + CCCCCC(C)O |  |  |  |  |  |  | 0.554 ± 0.044 | 1306 ± 3 | 862.18 ± 0.73 | 0.496 ± 0.04 | 1270 ± 3 | 852.79 ± 0.74
